Assay results published in ChEMBL document CHEMBL1201862, “PubChem BioAssay data set” (2004).
“And” between values parts separate entries of the source, which are not always exact repeats. Equal entries are not always repeated.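 Step 1: Grow cells in 96-well plates. Step 2: Expose to compound for 48 hours at 5 concentrations. Step 3: Interpolate endpoints linearly; if unreached, use highest concentration. Abbreviation: GI50, concentration required for 50% inhibition of growth.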 The source made the active and inactive calls. Cut-off read from the data, not from the text of the source: active = GI50 up to about 1.1 µM and inactive = higher.

Experiments:
Experiment in all cases: NCI anticancer screen, dose series, 48 h
MOLT-4 = system: MOLT-4
SF-295 = system: SF-295
RXF 393 = system: RXF 393
OVCAR-8 = system: OVCAR-8
SK-OV-3 = system: SK-OV-3
786-0 = system: 786-0
UACC-62 = system: UACC-62
NCI-H522 = system: NCI-H522
M14 = system: M14
COLO 205 = system: COLO 205
HCT-116 = system: HCT-116
BT-549 = system: BT-549
HOP-92 = system: HOP-92
TK-10 = system: TK-10
Malme-3M = system: Malme-3M
SNB-19 = system: SNB-19
MCF7 = system: MCF7
A498 = system: A498
SW-620 = system: SW-620
SNB-75 = system: SNB-75

Measured: GI50

COC(=O)c1cc2c(cc1Cl)Sc1nnc(Nc3ccc(C)cc3)n1S2(=O)=O
inactive: MOLT-4 2.94 µM | SF-295 10.9 µM | RXF 393 3.94 µM | OVCAR-8 10.5 µM | SK-OV-3 11.9 µM | 786-0 7.69 µM | UACC-62 12.3 µM | NCI-H522 2.67 µM | M14 12.7 µM | COLO 205 4.84 µM | HCT-116 8.93 µM | BT-549 13.4 µM | HOP-92 3.66 µM | TK-10 14.3 µM | Malme-3M 11 µM | SNB-19 5.81 µM | MCF7 3.72 µM | A498 15.2 µM

COC(=O)CCC(=O)NC1=C(NCc2ccccc2)C(=O)c2ccccc2C1=O
inactive: MOLT-4 34 µM | SF-295 26.7 µM | RXF 393 34.7 µM | OVCAR-8 27.7 µM | SK-OV-3 57.3 µM | 786-0 38.5 µM | UACC-62 17.3 µM | NCI-H522 19.1 µM | M14 18.7 µM | COLO 205 20.4 µM | HCT-116 30.3 µM | SW-620 19.9 µM | SNB-75 78.2 µM | BT-549 46.7 µM | HOP-92 15.7 µM | TK-10 45.3 µM | SNB-19 21.7 µM | MCF7 17.3 µM | A498 67.9 µM

CC1=C(C(=O)OCCO[N+](=O)[O-])C(c2cccc([N+](=O)[O-])c2)C(C(=O)OC(C)C)=C(C)N1 (stereo unspecified)
inactive: MOLT-4 3.23 µM | SF-295 11.4 µM | RXF 393 13.8 µM | OVCAR-8 16.1 µM | SK-OV-3 16.7 µM | 786-0 13.3 µM | UACC-62 14.5 µM | NCI-H522 17.8 µM | M14 16 µM | COLO 205 10.7 µM | HCT-116 10.5 µM | SW-620 22.3 µM | BT-549 14 µM | HOP-92 11 µM | TK-10 14.9 µM | Malme-3M 17.7 µM | SNB-19 19.2 µM | MCF7 19.6 µM | A498 19.4 µM

Cc1ccnc2c1C(=O)C1=C(OC(C)(C)CC1O)C2=O (stereo unspecified)
inactive: MOLT-4 3.9 µM | SF-295 3.81 µM | RXF 393 10.7 µM | OVCAR-8 2.83 µM | SK-OV-3 13.7 µM | 786-0 4.08 µM | UACC-62 1.71 µM | NCI-H522 2.9 µM | M14 2.62 µM | COLO 205 2.41 µM | HCT-116 2.82 µM | SW-620 2.87 µM | BT-549 3.36 µM | HOP-92 10.1 µM | TK-10 12 µM | Malme-3M 1.27 µM | SNB-19 7.38 µM | MCF7 2.56 µM | A498 15.3 µM

COc1ccc(OC)c(/C=C/[N+](=O)[O-])c1
inactive: SF-295 5.24 µM and 3.46 µM | RXF 393 1.12 µM and 2.05 µM | OVCAR-8 5.6 µM and 4.23 µM | SK-OV-3 5.53 µM and 4.7 µM | 786-0 1.79 µM and 1.57 µM | NCI-H522 1.63 µM and 1.16 µM | M14 1.98 µM and 3.36 µM | COLO 205 2.04 µM and 3.15 µM | HCT-116 1.85 µM and 3.13 µM | SW-620 3 µM and 2.2 µM | SNB-75 6.64 µM and 4.62 µM | BT-549 3.67 µM | HOP-92 4.35 µM and 3.05 µM | SNB-19 3.44 µM and 4.23 µM | MCF7 2.32 µM | A498 3.92 µM and 3.94 µM

COc1c(O)cc(/C=C/c2cc(O)cc3c2[C@@]2(C(=O)O3)c3c(O)cc(O)cc3OC2c2cccc(O)c2)cc1O (stereo partly specified)
inactive: MOLT-4 1.3 µM | RXF 393 52.2 µM | OVCAR-8 23.7 µM | SK-OV-3 28.2 µM | 786-0 68.7 µM | UACC-62 30.4 µM | NCI-H522 34.8 µM | M14 95.3 µM | COLO 205 41.2 µM | HCT-116 51.6 µM | SW-620 44.2 µM | BT-549 23.7 µM | HOP-92 > 100 µM | TK-10 95.9 µM | Malme-3M > 100 µM | SNB-19 39.3 µM | MCF7 48.6 µM | A498 94.6 µM

O=C(Cc1ccccc1CCO)NCCc1ccccc1
inactive: MOLT-4 > 100 µM | SF-295 > 100 µM | RXF 393 > 100 µM | OVCAR-8 > 100 µM | SK-OV-3 > 100 µM | 786-0 > 100 µM | UACC-62 > 100 µM | NCI-H522 > 100 µM | M14 > 100 µM | COLO 205 > 100 µM | HCT-116 > 100 µM | SW-620 > 100 µM | SNB-75 > 100 µM | BT-549 > 100 µM | HOP-92 > 100 µM | TK-10 > 100 µM | SNB-19 > 100 µM | MCF7 > 100 µM | A498 > 100 µM

Cc1ccc(NCc2nnc3c(-c4ccccc4)nc4ccccc4n23)cc1
inactive: MOLT-4 16 µM | SF-295 33.7 µM | RXF 393 34.8 µM | OVCAR-8 24 µM | SK-OV-3 40.6 µM | 786-0 27.9 µM | UACC-62 33.7 µM | NCI-H522 16 µM | M14 37.6 µM | COLO 205 32.8 µM | HCT-116 21.5 µM | SW-620 39.3 µM | BT-549 37.4 µM | HOP-92 16 µM | TK-10 43.9 µM | Malme-3M 37.2 µM | SNB-19 38 µM | MCF7 23.6 µM | A498 32.6 µM

O=[N+]([O-])c1ccc2[nH]ncc2c1Cl
inactive: MOLT-4 22.8 µM | SF-295 86.3 µM | RXF 393 42.8 µM | OVCAR-8 27.5 µM | SK-OV-3 53.5 µM | 786-0 36.3 µM | UACC-62 34.2 µM | NCI-H522 3.74 µM | COLO 205 13.4 µM | HCT-116 24 µM | SW-620 31.6 µM | SNB-75 35.9 µM | BT-549 38.5 µM | HOP-92 63 µM | TK-10 83.6 µM | SNB-19 36.8 µM | MCF7 41.7 µM | A498 74.6 µM

Cn1c(C(O)C2(c3cccnc3)SCCCS2)cc2ccccc21 (stereo unspecified)
inactive: SF-295 56.9 µM | OVCAR-8 > 100 µM | SK-OV-3 > 100 µM | 786-0 > 100 µM | UACC-62 88.3 µM | M14 89.7 µM | COLO 205 > 100 µM | HCT-116 > 100 µM | SW-620 > 100 µM | SNB-75 73.3 µM | BT-549 44.5 µM | HOP-92 > 100 µM | TK-10 > 100 µM | Malme-3M > 100 µM | SNB-19 > 100 µM | MCF7 59.2 µM | A498 > 100 µM

O=C1/C(=C/c2ccc(O)c(CN3CCCCC3)c2)CCC/C1=C\c1ccc(O)c(CN2CCCCC2)c1
inactive: MOLT-4 4 µM | SF-295 3.25 µM | RXF 393 3.24 µM | OVCAR-8 4.48 µM | SK-OV-3 8.53 µM | 786-0 3.52 µM | UACC-62 16 µM | M14 16.1 µM | COLO 205 2.55 µM | HCT-116 2.4 µM | SW-620 5.52 µM | SNB-75 2.27 µM | BT-549 10.4 µM | HOP-92 4.26 µM | TK-10 6.17 µM | Malme-3M 13.6 µM | SNB-19 5.04 µM | MCF7 3.26 µM | A498 12.8 µM
